Patent publication EP1433789A1, “Pyrrolopyrazines and their use as selective apoptosis inducers” (Aponetics AG, priority 2002, dated 2004)

Experiments:
[1] = tested on: A20; test: Hoechst 33342 nuclear staining (Table 3); type: cell-based, mouse; set-up: key: 0 relating to no activity; 1 relating to weak activity comprising less than 50% of the cells; score 2 relating to strong activity comprising more than 50% of the cells
Experimental: (§1) This assay is performed in 96 well tissue culture plates. Appropriate number of cells (adherent cells: 3 - 5*10^3, suspension cells: 8 - 10*10^3) are being seeded out in 80 µl complete medium. Adherent cells are incubated for 24 h for proper spreading out before addition of test compounds while suspension cells are immediately treated with test compounds after seeding out. The test compounds are added in 20 µl complete medium containing max 5% DMSO. The final compound concentrations in the assays are 10 µM, 3 µM,1 µM and 0.3 µM, respectively. After 24 h or 48 h incubation at culture conditions, 10 µl medium containing Hoechst 33342 dye (Sigma B-2261) at 2-5 µg/ml are added to each well. The assay plates are then further incubated for 30 minutes and subsequently analyzed with a standard inverted fluorescence microscope. The readout allows the determination of the fraction of apoptotic nuclei as well as other morphological criteria specific for apoptosis as a function of the treatment. The following scores are used: 0 relating to no activity, 1 relating to weak activity comprising less than 50% of the cells and score 2 relating to strong activity comprising more than 50% of the cells.

[2] = tested on: Jurkat; test: Hoechst 33342 nuclear staining (Table 3); type: cell-based, human; set-up: key: 0 relating to no activity; 1 relating to weak activity comprising less than 50% of the cells; score 2 relating to strong activity comprising more than 50% of the cells
Experimental: as §1

[3] = tested on: K562; test: Hoechst 33342 nuclear staining (Table 3); type: cell-based, human; set-up: key: 0 relating to no activity; 1 relating to weak activity comprising less than 50% of the cells; score 2 relating to strong activity comprising more than 50% of the cells
Experimental: as §1

[4] = tested on: Ramos; test: Hoechst 33342 nuclear staining (Table 3); type: cell-based, human; set-up: key: 0 relating to no activity; 1 relating to weak activity comprising less than 50% of the cells; score 2 relating to strong activity comprising more than 50% of the cells; conditions: 24h
Experimental: as §1

[5] = tested on: HeLa; test: Hoechst 33342 nuclear staining (Table 3); type: cell-based, human; set-up: key: 0 relating to no activity; 1 relating to weak activity comprising less than 50% of the cells; score 2 relating to strong activity comprising more than 50% of the cells
Experimental: as §1

[6] = tested on: A20; test: AnnexinV/7-AAD staining; type: cell-based, mouse; conditions: A20, 10 µM, 24 h treatment
Experimental: (§2) Adherent cells (1 - 2*10^5) are 24 h prior to compound treatment seeded into 24 well tissue culture plates. Suspension cells are pipetted into P-tubes immediately before treatment. Test compounds are added leading to a final concentrations of 10 µM. After 24 h treatment cells are harvested (in case of adherent cells by trypsinization) and transferred to FACS tubes (BD Biosciences). After centrifugation and removal of the supernatant, 100 µl complete medium containing AnnexinV-GST (10 µg) is added, mixed and incubated at 4°C for 30 minutes. Subsequently, the cells are washed once with medium and incubated with 100 µl anti-GST Alexa 488 (Molecular Probes A-11131) in medium diluted 1:500 for 30 minutes at 4°C. Then, cells are washed once and stained with 1 µg/ml 7-aminoactinomycin D (7-AAD) (Molecular Probes A-1310) in 250 µl medium and analyzed on the FACSCalibur™. AnnexinV is measured in FL1 whereas 7-AAD is measured in FL3. In Table 5 the percentage of positively stained cells after treatment with the respective compounds are indicated. The following scores are used: Score 0 relates to less than 10%, score 1 relates to more than 10% but less than 50% and score 2 relates to more than 50% positivity.

[7] = tested on: Jurkat; test: AnnexinV/7-AAD staining; type: cell-based, human; conditions: 10 µM, 24 h treatment
Experimental: as §2

[8] = tested on: Ramos; test: AnnexinV/7-AAD staining; type: cell-based, human; conditions: 10 µM, 24 h treatment
Experimental: as §2

[9] = tested on: HeLa; test: AnnexinV/7-AAD staining; type: cell-based, human; conditions: 10 µM, 24 h treatment
Experimental: as §2

For “[2-(3-Methoxy-6,6-dimethyl-5,6-dihydro-6a,7,12-triaza-dibenzofluoren-2-yloxy)-ethyl]-dimethyl-amine [No. 6]”, the “Hoechst 33342 nuclear staining” value ([1]; A20, 24h, conc 0.3 (µM)) was 0, the “Hoechst 33342 nuclear staining” value ([1]; A20, 24h, conc 1 (µM)) was 0 and the “Hoechst 33342 nuclear staining” value ([1]; A20, 24h, conc 3 (µM)) was 0. The “Hoechst 33342 nuclear staining” value ([1]; A20, 24h, conc 10 (µM)) was 0, the “Hoechst 33342 nuclear staining” value ([1]; A20, 48h, conc 0.3 (µM)) was 0 and the “Hoechst 33342 nuclear staining” value ([1]; A20, 48h, conc 1 (µM)) was 0. For the same substance, the “Hoechst 33342 nuclear staining” value ([1]; A20, 48h, conc 3 (µM)) was 0, the “Hoechst 33342 nuclear staining” value ([1]; A20, 48h, conc 10 (µM)) was 2 (score 2 relating to strong activity comprising more than 50% of the cells) and the “Hoechst 33342 nuclear staining” value ([2]; 24h, conc 0.3 (µM)) was 0. For the same substance, the “Hoechst 33342 nuclear staining” value ([2]; 24h, conc 1 (µM)) was 0, the “Hoechst 33342 nuclear staining” value ([2]; 24h, conc 3 (µM)) was 0 and the “Hoechst 33342 nuclear staining” value ([2]; 24h, conc 10 (µM)) was 2 (score 2 relating to strong activity comprising more than 50% of the cells). For the same substance, the “Hoechst 33342 nuclear staining” value ([2]; 48h, conc 0.3 (µM)) was 0, the “Hoechst 33342 nuclear staining” value ([2]; 48h, conc 1 (µM)) was 2 (score 2 relating to strong activity comprising more than 50% of the cells) and the “Hoechst 33342 nuclear staining” value ([2]; 48h, conc 3 (µM)) was 2 (score 2 relating to strong activity comprising more than 50% of the cells). For the same substance, the “Hoechst 33342 nuclear staining” value ([2]; 48h, conc 10 (µM)) was 2 (score 2 relating to strong activity comprising more than 50% of the cells), the “Hoechst 33342 nuclear staining” value ([3]; K562, 24h, conc 0.3 (µM)) was 0 and the “Hoechst 33342 nuclear staining” value ([3]; K562, 24h, conc 1 (µM)) was 0. For the same substance, the “Hoechst 33342 nuclear staining” value ([3]; K562, 24h, conc 3 (µM)) was 0, the “Hoechst 33342 nuclear staining” value ([3]; K562, 24h, conc 10 (µM)) was 2 (score 2 relating to strong activity comprising more than 50% of the cells) and the “Hoechst 33342 nuclear staining” value ([3]; K562, 48h, conc 0.3 (µM)) was 0. The “Hoechst 33342 nuclear staining” value ([3]; K562, 48h, conc 1 (µM)) was 0, the “Hoechst 33342 nuclear staining” value ([3]; K562, 48h, conc 3 (µM)) was 0 and the “Hoechst 33342 nuclear staining” value ([3]; K562, 48h, conc 10 (µM)) was 2 (score 2 relating to strong activity comprising more than 50% of the cells). For the same substance, the “Hoechst 33342 nuclear staining” value ([4]; conc 0.3 (µM)) was 0, the “Hoechst 33342 nuclear staining” value ([4]; conc 1 (µM)) was 0 and the “Hoechst 33342 nuclear staining” value ([4]; conc 3 (µM)) was 0. For the same substance, the “Hoechst 33342 nuclear staining” value ([4]; conc 10 (µM)) was 2 (score 2 relating to strong activity comprising more than 50% of the cells), the “Hoechst 33342 nuclear staining” value ([5]; 24h, conc 0.3 (µM)) was 0 and the “Hoechst 33342 nuclear staining” value ([5]; 24h, conc 1 (µM)) was 0. The “Hoechst 33342 nuclear staining” value ([5]; 24h, conc 3 (µM)) was 0, the “Hoechst 33342 nuclear staining” value ([5]; 24h, conc 10 (µM)) was 2 (score 2 relating to strong activity comprising more than 50% of the cells) and the “Hoechst 33342 nuclear staining” value ([5]; 48h, conc 0.3 (µM)) was 0. The “Hoechst 33342 nuclear staining” value ([5]; 48h, conc 1 (µM)) was 0, the “Hoechst 33342 nuclear staining” value ([5]; 48h, conc 3 (µM)) was 0 and the “Hoechst 33342 nuclear staining” value ([5]; 48h, conc 10 (µM)) was 2 (score 2 relating to strong activity comprising more than 50% of the cells). The “percentage of positively stained cells (AnnexinV/7-AAD staining)” value (shortened to “percentage of positively stained cells”) [6] was 2 (score 2 relates to more than 50% positivity), the “percentage of positively stained cells” value [7] was 2 (score 2 relates to more than 50% positivity) and the “percentage of positively stained cells” value [8] was 2 (score 2 relates to more than 50% positivity). The “percentage of positively stained cells” value [9] was 2 (score 2 relates to more than 50% positivity).
